Converted amounts (≈) assume the structure as drawn. Read-outs that look alike come from different tables or passages of the source.
Columns and labels:
[1] = tested on: E. coli RNase P RNA, M1 RNA; assay: Initial inhibition of RNase P activity (normalised cleavage of pATSerUG at maximum compound concentration); assay type: biochemical; details: at 8 μM; normalised cleavage (cleavage with compound / without compound)
[2] = tested on: Enterococcus faecalis (ATCC29212); assay: MIC, broth microdilution (CLSI), Enterococcus faecalis ATCC29212; assay type: cell-based; details: read-out: MIC E. faecalis ATCC 29212
[3] = tested on: Pseudomonas aeruginosa (ATCC27853); assay: microbe, parasite or virus in culture; assay type: cell-based; details: read-out: MIC P. aeruginosa ATCC 27853
[4] = tested on: Staphylococcus aureus subsp. aureus (ATCC29213); assay: MIC, broth microdilution (CLSI), Staphylococcus aureus subsp. aureus ATCC29213; assay type: cell-based; details: ATCC29213, Table 16, read-out: MIC S. aureus ATCC 29213
[5] = tested on: H. influenzae ATCC 49247; assay: MIC, H. influenzae ATCC 49247; assay type: cell-based; details: Haemophilus influenzae, ATCC49247
[6] = tested on: A. baumannii ATCC 17978; assay: MIC, A. baumannii ATCC 17978; assay type: cell-based; details: Acinetobacter baumannii, ATCC17978
[7] = tested on: P. aeruginosa NTUH-974 (MDR); assay: MIC, P. aeruginosa NTUH-974 (MDR); assay type: cell-based; details: Pseudomonas aeruginosa, read-out: MIC P. aeruginosa NTUH-974 (MDR)
[8] = tested on: N. gonorrhoeae 612501; assay: MIC, N. gonorrhoeae 612501; assay type: cell-based; details: Neisseria gonorrhoeae
[9] = tested on: E. faecium ATCC 700221; assay: MIC, E. faecium ATCC 700221; assay type: cell-based; details: Enterococcus faecium, ATCC700221; read-out: MIC E. faecium ATCC 700221
[10] = tested on: E. coli JW5503; assay: MIC, E. coli JW5503; assay type: cell-based; details: Escherichia coli, JW5503, read-out: MIC E. coli JW5503
[11] = tested on: K. pneumoniae ATCC 43816; assay: MIC, K. pneumoniae ATCC 43816; assay type: cell-based; details: Klebsiella pneumoniae, ATCC43816
[12] = tested on: S. aureus ATCC 29213; assay: MIC, S. aureus ATCC 29213 + 50% HS; assay type: cell-based; details: Staphylococcus aureus, ATCC29213
[13] = tested on: S. aureus MRSA ATCC 33591; assay: MIC, S. aureus MRSA ATCC 33591; assay type: cell-based; details: Staphylococcus aureus; read-out: MIC S. aureus MRSA ATCC 33591
[14] = tested on: S. pneumoniae ATCC 49619; assay: MIC, S. pneumoniae ATCC 49619; assay type: cell-based; details: Streptococcus pneumoniae, ATCC49619
[15] = tested on: Escherichia coli (ATCC25922); assay: MIC, broth microdilution (CLSI), Escherichia coli ATCC25922
[16] = tested on: Staphylococcus aureus (ATCC25923); assay: MIC, broth microdilution (CLSI), Staphylococcus aureus ATCC25923; details: ATCC25923, read-out: S. aureus ("Clinical") MIC

## Nc1cc(C(F)(F)F)cc2c1N(CCCn1ccnc1)c1ccccc1S2 [compound 44, 10-(3-(1H-imidazol-1-yl)propyl)-3-(trifluoromethyl)-10H-phenothiazin-1-amine]
[1]
  Normalised RNase P cleavage (fraction of control): 1.06
[2]
  MIC: 16 µg/mL (≈ 41 µM)
[3]
  MIC: > 128 µg/mL
[4]
  MIC: 4 µg/mL (≈ 10.2 µM)
[5]
  MIC: 16 µg/mL (≈ 41 µM)
[6]
  MIC: > 128 µg/mL
[7]
  MIC: > 128 µg/mL
[8]
  MIC: 2 µg/mL (≈ 5.12 µM)
[9]
  MIC: 8 µg/mL (≈ 20.5 µM)
[10]
  MIC: 8 µg/mL (≈ 20.5 µM)
[11]
  MIC: > 128 µg/mL
[12]
  MIC: > 128 µg/mL
[13]
  MIC: 64 µg/mL (≈ 164 µM)
[14]
  MIC: 16 µg/mL (≈ 41 µM)
[15]; ATCC25922, read-out: E. coli MIC, Table 15, NI = No inhibition
  MIC: > 100 µg/mL
[15]; ATCC25922, read-out: MIC E. coli ATCC 25922
  MIC: > 128 µg/mL
[16]
  MIC: 2 µg/mL (≈ 5.12 µM)
